Assays:
Rhizoctonia solani [1] = experiment: Filter disk fumigation method, mycelial growth inhibition on PDA; assay type: cell-based, Rhizoctonia solani AG-4, isolate Rs 23A; conditions: for Fumig1 % inhibition: fumigation experiment 1; for Fumig2 % inhibition: fumigation experiment 2
Description: (§1) Fungal isolate and preparation of inoculum: Rhizoctonia solani AG-4, isolate Rs 23A is a highly virulent pathogenic isolate which infects many vegetables, ornamentals and turfgrasses (Lewis, J. A., and G. C. Papavizas, Soil Biology and Biochemistry, 9:195-201 (1987)). The fungus was grown in potato dextrose agar (PDA) plates and fungal plugs from the freshly growing mycelium were mixed with moist sterilized cracked wheat in a 2 L flask for 15 days in dark at 22° C. (Lakshman, D. K., et al., Proceedings of the National Academy of Science, USA, 95: 6425-6429 (1998)). The infested wheat was air dried in a sterile hood for 3 days, blended in a homogenizer and sieved through a mesh and stored at 2° C. before soil inoculation. A dose response of the inocula was carried out by thoroughly mixing using 0.25, 0.5, 0.75, 1.0, 1.25 and 1.50 g inoculums per Kg dry weight potting soil plus sterile water to maintain 25-30% moisture and incubating at room temperature for two weeks before sowing cucumber (cv muncher) seeds with the infested soil. The percent germination and post-emergence damping off of cucumber seedlings were recorded. The lowest inoculums dose that induced 100% postemergence damping off was estimated to be 1 to 1.25 g/Kg soil for inocula prepared over the span of the experiments. For soil fumigation with plant extracts (PEs), each time the minimum inoculum dose giving rise to 100% damping off was used.
In the second protocol, the chemical was kept not in direct contact with the fungus and we hypothesized that the plant extract will most likely influence the growth of the pathogen by fumigation action. In this approach, three sterile 15 mm filter paper (Whatman International Ltd, Maidstone, UK) disks were placed on the edge of each of three plates on the PDA. Each disk was impregnated in the center with various amounts (5-50 ul/disk) of the test solution/suspension. For negative control, only soybean oil was placed in the filter disk. […] The average radial growth was calculated and the experiment was repeated one more time. Percent growth inhibition was calculated as reported for poison bed assay.

cucumber seeds = experiment: Greenhouse assay of seed germination and phytotoxicity, soil treated with plant extract alone; conditions: cucumber, in vivo, 0.3 % of PE in soil (3000 ppm)
Description: Soil treatment: For each treatment, 300 g of dry greenhouse soli (Pro-mix, Premier Horticulture LTD, Red Hill, Pa.) was thoroughly mixed with Rhizoctonia inoculum and incubated for 15 days as described above. […] The infested soil treated with only the carrier solution served as an untreated control. Following the treatment, the soil was thoroughly stirred to mix the contents and incubated in a double polythene bag closed tightly in the dark at room temperature for four days for fumigation to occur. Following the incubation, the bag was opened to allow as much PE to dissipate as possible. This was done by sprinkling the surface soil with sterile water every other day, and stirring the soil once every day for seven days. For assay of effect on seed germination and phytotoxicity of the plant extracts, soil was treated with plant extract formulations alone.
Greenhouse studies: Treated soil from each treatment was distributed to 4-inch plastic pots into which 12 seeds of cucumbers (95-100% germination) were sown and lightly watered to keep soil moist. The treatments were color coded and pots were randomized across treatment. All plants were kept in a greenhouse between 20° C. (night) to 26° C. (day) with 14 h of light. There were three pots per treatment in each experiment, and the experiment was repeated three times. As positive control, a broad spectrum popular soil fungicide Banrot® 40 WP (The Scotts Company, Ohio) was used following manufacturer's recommendation to control the disease. Total number of seedlings without any sign of damping off in each pot was recorded and percentage of disease suppression were calculated four weeks after sowing cucumber seeds.

Rhizoctonia solani [2] = experiment: Fungicidal vs fungistatic potential (regrowth of mycelial plugs on fresh PDA, 7 days); assay type: cell-based, Rhizoctonia solani AG-4, isolate Rs 23A
Description: The fungicidal and fungistatic potential of the PEs were determined by the method described by Garber and Houstan (Garber R. H., and B. R. Houston, Phytopathology, 49: 449-450 (1959)). In brief, three 5 mm diameter plugs were taken from the peripheral mycelial growth from each plate and placed in a fresh PDA plate. Following incubation at room temperature for 7 days, observations were recorded for new mycelial growth (fungistatic) or no mycelial growth (fungicidal). As control, peripheral mycelial plugs from soybean oil amended PDA plates were checked for fresh mycelial growth in fresh PDA plates.

Rhizoctonia solani [3] = experiment: Poison food technique (contact action), mycelial growth inhibition in PDA; assay type: cell-based, Rhizoctonia solani AG-4, isolate Rs 23A; conditions: for PoisonB1 % inhibition: poison bed experiment 1; for PoisonB2 % inhibition: poison bed experiment 2
Description: as §1
In vitro bioassays: Two in vitro bioassay methods were used to investigate the mycelial growth inhibitory potentials of PEs. In the poison food technique, test chemical/plant extract was mixed at concentrations of 15, 30, 45, 60, 75, and 150 μl per 20 ml autoclaved PDA at 50° C., poured on three sterile disposable plastic plates (100×15 mm, Fisherbrand) at 20 ml/plate and cooled to room temperature to solidify (Dhingra, O.D., and J. B. Sinclair, 1995, Basic Plant Pathology Methods, 2nd Edition, Lewis Publishers, Boca Raton and London). […] Each plate was seeded in the center with a 5 mm diameter agar disk of the freshly grown Rhizoctonia pathogen, mycelial side facing the medium, and sealed with stretched Parafilm® M (Fisher Scientific). The plates were incubated in the dark at room temperature and when the pathogen reached to the edge of the plates in the control treatment (soybean oil), radial measurement of fungal growth in plates treated with PEs were recorded by taking three measurements from each plate. The experiment was repeated one more time. The percent mycelial growth inhibition (MGI) due to PE was calculated using the following formula: […] where dc=Avg. radial growth in mm of pathogen in control plate; dt=avg. radial growth in mm of pathogen in treated plate.

Rhizoctonia solani [4] = experiment: Greenhouse suppression of damping off of cucumber seedlings in R. solani infested soil amended with plant extract; assay type: in vivo, Rhizoctonia solani AG-4, isolate Rs 23A

Question: With `Cc1ccc(C(C)C)c(O)c1` [Thymol] as the compound, how does the Fumig1 % inhibition (Rhizoctonia solani [1]; amount oil 15 μL/20 mL plate) read?
Answer: 77%

Question: What about the Fumig2 % inhibition (Rhizoctonia solani [1]; amount oil 15 μL/20 mL plate) of the same compound?
Answer: 91%

Question: What about the Fumig1 % inhibition (Rhizoctonia solani [1]; amount oil 30 μL/20 mL plate) of the same compound?
Answer: 86%

Question: And the Fumig2 % inhibition (Rhizoctonia solani [1]; amount oil 30 μL/20 mL plate)?
Answer: 93%

Question: What about the Fumig1 % inhibition (Rhizoctonia solani [1]; amount oil 45 μL/20 mL plate) of the same compound?
Answer: 90%

Question: And the Fumig2 % inhibition (Rhizoctonia solani [1]; amount oil 45 μL/20 mL plate)?
Answer: 94%

Question: And the Fumig1 % inhibition (Rhizoctonia solani [1]; amount oil 60 μL/20 mL plate)?
Answer: 89%

Question: What about the Fumig1 % inhibition (Rhizoctonia solani [1]; amount oil 75 μL/20 mL plate) of the same compound?
Answer: 93%

Question: And the Fumig1 % inhibition (Rhizoctonia solani [1]; amount oil 150 μL/20 mL plate)?
Answer: 96%

Question: And the “Avg. seed germination (+ PE only)” value (cucumber seeds)?
Answer: 8.00

Question: What about the “Effect (fumigation)” value (Rhizoctonia solani [2]; amount oil 15 μL/20 mL plate) of the same compound?
Answer: S

Question: And the “Effect (poison bed, contact action)” value (Rhizoctonia solani [2]; amount oil 15 μL/20 mL plate)?
Answer: S

Question: And the “Effect (fumigation)” value (Rhizoctonia solani [2]; amount oil 30 μL/20 mL plate)?
Answer: S

Question: And the “Effect (poison bed, contact action)” value (Rhizoctonia solani [2]; amount oil 30 μL/20 mL plate)?
Answer: S

Question: What about the “Effect (fumigation)” value (Rhizoctonia solani [2]; amount oil 45 μL/20 mL plate) of the same compound?
Answer: S

Question: And the “Effect (poison bed, contact action)” value (Rhizoctonia solani [2]; amount oil 45 μL/20 mL plate)?
Answer: S

Question: What about the “Effect (fumigation)” value (Rhizoctonia solani [2]; amount oil 60 μL/20 mL plate) of the same compound?
Answer: S

Question: And the “Effect (poison bed, contact action)” value (Rhizoctonia solani [2]; amount oil 60 μL/20 mL plate)?
Answer: S

Question: And the “Effect (fumigation)” value (Rhizoctonia solani [2]; amount oil 75 μL/20 mL plate)?
Answer: S

Question: What about the “Effect (poison bed, contact action)” value (Rhizoctonia solani [2]; amount oil 75 μL/20 mL plate) of the same compound?
Answer: S

Question: What about the “Effect (fumigation)” value (Rhizoctonia solani [2]; amount oil 150 μL/20 mL plate) of the same compound?
Answer: S

Question: And the “Effect (poison bed, contact action)” value (Rhizoctonia solani [2]; amount oil 150 μL/20 mL plate)?
Answer: S

Question: What about the “Fungicidal vs fungistatic nature” value (Rhizoctonia solani [2]; in vitro, fumigation and contact action) of the same compound?
Answer: fungistatic

Question: What about the PoisonB1 % inhibition (Rhizoctonia solani [3]; amount oil 15 μL/20 mL plate) of the same compound?
Answer: 100%

Question: What about the PoisonB2 % inhibition (Rhizoctonia solani [3]; amount oil 15 μL/20 mL plate) of the same compound?
Answer: 42%

Question: And the PoisonB1 % inhibition (Rhizoctonia solani [3]; amount oil 30 μL/20 mL plate)?
Answer: 100%

Question: And the PoisonB2 % inhibition (Rhizoctonia solani [3]; amount oil 30 μL/20 mL plate)?
Answer: 100%

Question: And the PoisonB1 % inhibition (Rhizoctonia solani [3]; amount oil 45 μL/20 mL plate)?
Answer: 100%

Question: What about the PoisonB2 % inhibition (Rhizoctonia solani [3]; amount oil 45 μL/20 mL plate) of the same compound?
Answer: 100%

Question: And the PoisonB1 % inhibition (Rhizoctonia solani [3]; amount oil 60 μL/20 mL plate)?
Answer: 100%

Question: And the PoisonB2 % inhibition (Rhizoctonia solani [3]; amount oil 60 μL/20 mL plate)?
Answer: 100%

Question: What about the PoisonB1 % inhibition (Rhizoctonia solani [3]; amount oil 75 μL/20 mL plate) of the same compound?
Answer: 100%

Question: And the PoisonB2 % inhibition (Rhizoctonia solani [3]; amount oil 75 μL/20 mL plate)?
Answer: 100%

Question: And the PoisonB1 % inhibition (Rhizoctonia solani [3]; amount oil 150 μL/20 mL plate)?
Answer: 100%

Question: What about the PoisonB2 % inhibition (Rhizoctonia solani [3]; amount oil 150 μL/20 mL plate) of the same compound?
Answer: 100%

Question: What about the “% Disease suppression (+ PE + R. solani)” value (Rhizoctonia solani [4]; cucumber damping off, soil amendment at 0.3% (v/w), four weeks after sowing) of the same compound?
Answer: 27.75%

Question: And the “Avg. seed Germination (+ PE + R. solani)” value (Rhizoctonia solani [4]; cucumber, 12 seeds sown per pot, infested soil amended with 0.3% PE)?
Answer: 3.33

— patent US8871280B1, “Compositions and methods for treating fungal activity in plants or soil” (The United States of America, as represented by the …, priority 2011, dated 2014)
